From ChEMBL document CHEMBL4665853, “Inhibition of Macrophage Migration Inhibitory Factor by a Chimera of Two Allosteric Binders” (ACS Med Chem Lett, 2020)
pIC50, pKd, pKi: −log10 of the molar value.

Columns and labels:
[1] = target: T1, Macrophage migration inhibitory factor (Homo sapiens, UniProt P14174); experiment: Binding affinity to recombinant biotinylated human MIF expressed in Escherichia coli BL21 DE3 by surface plasmon resonance assay
T1 sequence (P14174 whole entry): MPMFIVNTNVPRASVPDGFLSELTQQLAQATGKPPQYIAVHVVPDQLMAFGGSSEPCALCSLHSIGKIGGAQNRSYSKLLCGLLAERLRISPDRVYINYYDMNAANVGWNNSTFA

[2] = target: T1, Macrophage migration inhibitory factor; experiment: Non-competitive inhibition of recombinant human MIF assessed as inhibition constant using varying levels of p-hydroxyphenylpyruvate as substrate by Lineweaver-Burk plot analysis
[3] = target: T1, Macrophage migration inhibitory factor; experiment: Inhibition of MIF-induced IL-8 secretion in human foreskin fibroblasts incubated for 30 mins by ELISA
[4] = target: T1, Macrophage migration inhibitory factor; experiment: Inhibition of recombinant human MIF expressed in Escherichia coli BL21 DE3 binding to recombinant soluble human CD74 receptor ectodomain (73 to 232 residues) expressed in Escherichia coli BL21 (DE3) pLysS using p-nitrophenyl phosphate as substrate by ELISA
[5] = target: T1, Macrophage migration inhibitory factor; experiment: Inhibition of recombinant biotinylated human MIF tautomerase activity expressed in Escherichia coli BL21 DE3 assessed as reduction in tautomerization of keto-p-hydroxyphenylpyruvate using keto-p-hydroxyphenylpyrivate as substrate preincubated for 30 mins followed by substrate addition by HTS assay

Row | Compound | pKd [1] | pKi [2] | pIC50 [3] | pIC50 [4] | pIC50 [5]
1 | CC(C)C(=O)c1c(C(C)C)nn2ccccc12 [IBUDILAST] | 5.85 | 4.51 |  |  | 
2 | CC(C)C(=O)c1c(Cc2cccc(/N=N/c3ccc4c(S(=O)(=O)O)cc(S(=O)(=O)O)c(N)c4c3O)c2)nn2ccccc12 | 5.16 |  | 5.35 | 6.03 | 5.12
